Assay results reported in patent US11608323B2 (SYNGENTA LIMITED, priority 2013, dated 2023).

Experiments:
Assay type in all cases: in vivo
[1] = tested on: AMARE; test: Post-emergence herbicidal activity, glasshouse pot test; conditions: Amaranthus retroflexus; application post-emergence; rate 1000 g/Ha; evaluated after 13 days; note: key: 5=total damage to plant; 0=no damage to plant
How it was run: (§1)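 Pot-grown seedlings sprayed 8 days after sowing with active ingredient in acetone/water (50:50) plus 0.5% Tween 20. Glasshouse at 24/16 °C day/night, 14 h light, 65% humidity, watered twice daily. Damage scored after 13 days on a 0–5 scale (5 = total damage, 0 = none).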

[2] = tested on: ECHCG; test: as above; conditions: Echinochloa crus-galli; application post-emergence; rate 1000 g/Ha; evaluated after 13 days
How it was run: as §1

[3] = tested on: ABUTH; test: as above; conditions: Abutilon theophrasti; application post-emergence; rate 1000 g/Ha; evaluated after 13 days
How it was run: as §1

[4] = tested on: ALOMY; test: as above; conditions: Alopecurus myosuroides; application post-emergence; rate 1000 g/Ha; evaluated after 13 days
How it was run: as §1

[5] = tested on: SETFA; test: as above; conditions: Setaria faberi; application post-emergence; rate 1000 g/Ha; evaluated after 13 days
How it was run: as §1

[6] = tested on: ZEAMX; test: as above; conditions: Zea mays; application post-emergence; rate 1000 g/Ha; evaluated after 13 days
How it was run: as §1

[7] = tested on: AMARE; test: Pre-emergence herbicidal activity, glasshouse pot test; conditions: rate 1000 g/Ha, evaluated after 13 days, scale 0-5; note: key: 5=total damage to plant; 0=no damage to plant
How it was run: (§2)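 Pre-emergence spray, one day post-sowing; vehicle acetone/water (50:50) + 0.5% Tween 20, aqueous dilution. Glasshouse 24/16 °C, 14 h light, 65% RH, watering twice daily. Score at 13 d on 0–5 scale, 5 = total damage.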

[8] = tested on: ECHCG; test: as above; conditions: rate 1000 g/Ha, evaluated after 13 days, scale 0-5
How it was run: as §2

[9] = tested on: ABUTH; test: as above; conditions: rate 1000 g/Ha, evaluated after 13 days, scale 0-5
How it was run: as §2

[10] = tested on: ALOMY; test: as above; conditions: rate 1000 g/Ha, evaluated after 13 days, scale 0-5
How it was run: as §2

[11] = tested on: SETFA; test: as above; conditions: rate 1000 g/Ha, evaluated after 13 days, scale 0-5
How it was run: as §2

[12] = tested on: ZEAMX; test: as above; conditions: rate 1000 g/Ha, evaluated after 13 days, scale 0-5
How it was run: as §2
Throughout, for ABUTH damage score, application pre-emergence: key: 5=total damage to plant; 0=no damage to plant.
Throughout, for Post-emergence herbicidal activity ABUTH (damage score 0-5): key: 5=total damage to plant; 0=no damage to plant.
Throughout, for Post-emergence herbicidal activity ALOMY (damage score 0-5): key: 5=total damage to plant; 0=no damage to plant.
Throughout, for Post-emergence herbicidal activity ECHCG (damage score 0-5): key: 5=total damage to plant; 0=no damage to plant.
Throughout, for Post-emergence herbicidal activity SETFA (damage score 0-5): key: 5=total damage to plant; 0=no damage to plant.

| Structure (SMILES) | Post-emergence herbicidal activity AMARE (damage score 0-5) [1] | Post-emergence herbicidal activity ECHCG (damage score 0-5) [2] | Post-emergence herbicidal activity ABUTH (damage score 0-5) [3] | Post-emergence herbicidal activity ALOMY (damage score 0-5) [4] | Post-emergence herbicidal activity SETFA (damage score 0-5) [5] | Post-emergence herbicidal activity ZEAMX (damage score 0-5) [6] | AMARE damage score, application pre-emergence [7] | ECHCG damage score, application pre-emergence [8] | ABUTH damage score, application pre-emergence [9] | ALOMY damage score, application pre-emergence [10] | SETFA damage score, application pre-emergence [11] | ZEAMX damage score, application pre-emergence [12] |
| --- | --- | --- | --- | --- | --- | --- | --- | --- | --- | --- | --- | --- |
| CC1C(O)N(c2cc(C(F)(F)F)c(NC(=O)C(C)(C)C)cn2)C(=O)N1C (single isomer, unassigned) [Compound A57] | 5 | 5 | 5 | 5 | 5 | 4 | 5 | 3 | 5 | 4 | 3 | 1 |
| CON1C(=O)N(c2cc(C(F)(F)F)c(C)cn2)C(O)C1C (single isomer, unassigned) [Compound A58] | 5 | 5 | 5 | 4 | 5 | 4 | 5 | 3 | 5 | 4 | 3 | 4 |
| CCC1C(O)N(c2cc(C(F)(F)F)ccn2)C(=O)N1C (stereo not drawn) [Compound A1] | 5 | 5 | 5 | 5 | 5 | 3 | 5 | 5 | 5 | 4 | 5 | 3 |
| CCCOC1C(O)N(c2cc(C(F)(F)F)ccn2)C(=O)N1C (stereo not drawn) [Compound A2] | 5 | 5 | 5 | 4 | 5 | 2 | 5 | 4 | 5 | 2 | 3 | 1 |
| COC1C(O)N(c2cc(C(F)(F)F)ccn2)C(=O)N1C (stereo not drawn) [Compound A5] | 5 | 4 | 5 | 4 | 4 | 2 | 5 | 4 | 5 | 3 | 4 | 2 |
| CN1C(=O)N(c2cc(C(F)(F)F)ccn2)C(O)C1O (stereo not drawn) [Compound A7, 4,5-dihydroxy-1-methyl-3-[4-(trifluoromethyl)-2-pyridyl]imidazolidin-2-one] | 5 | 5 | 5 | 4 | 5 | 4 | 5 | 3 | 5 | 4 | 4 | 1 |
| CON1C(=O)N(c2cc(C(F)(F)F)ccn2)C(O)C1C (stereo not drawn) [Compound A8, 4-hydroxy-1-methoxy-5-methyl-3-[4-(trifluoromethyl)-2-pyridyl]imidazolidin-2-one] | 5 | 5 | 5 | 5 | 5 | 4 | 5 | 4 | 5 | 4 | 5 | 3 |
| CC1C(O)N(c2cc(C(F)(F)F)c(-c3ccccn3)cn2)C(=O)N1C (stereo not drawn) [Compound A9] | 5 | 5 | 5 | 5 | 5 | 4 | 5 | 5 | 5 | 4 | 5 | 3 |
| CCOC1C(O)N(c2cc(C(F)(F)F)c(OC)cn2)C(=O)N1C (stereo not drawn) [Compound A10] | 5 | 5 | 5 | 5 | 5 | 4 | 5 | 5 | 5 | 4 | 5 | 3 |
| CC1C(O)N(c2cc(C(F)(F)F)c(-c3cncnc3)cn2)C(=O)N1C (stereo not drawn) [Compound A11] | 5 | 5 | 5 | 4 | 5 | 4 | 5 | 4 | 5 | 4 | 5 | 3 |
| COc1cnc(N2C(=O)N(C)C(C)C2O)cc1C(F)(F)F (stereo not drawn) [Compound A12, 5-hydroxy-1-[5-methoxy-4-(trifluoromethyl)-2-pyridyl]-3,4-dimethyl-imidazolidin-2-one] | 5 | 5 | 5 | 5 | 5 | 5 | 5 | 5 | 5 | 4 | 5 | 3 |
